Assay results published in ChEMBL document CHEMBL1201862, “PubChem BioAssay data set” (2004).
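Tested at 5 concentrations; 48 h exposure; 96-well plates; endpoints linearly interpolated, else capped at highest concentration. The concentration for 50% growth inhibition is given as GI50.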 Active and inactive are the calls of the source. Cut-off read from the data, not from the text of the source: active = GI50 up to about 1.1 µM and inactive = higher.

How the values were obtained:
Experiment in all cases: growth of human tumour cells (NCI), 48 h
[1] = system: NCI-H522
[2] = system: UO-31
[3] = system: 786-0
[4] = system: KM12
[5] = system: SNB-75
[6] = system: OVCAR-4
[7] = system: UACC-257
[8] = system: ACHN
[9] = system: M14
[10] = system: SK-MEL-28
[11] = system: SF-539
[12] = system: OVCAR-5
[13] = system: HCC 2998
[14] = system: HOP-92

SMILES	GI50 [1]	GI50 [2]	GI50 [3]	GI50 [4]	GI50 [5]	GI50 [6]	GI50 [7]	GI50 [8]	GI50 [9]	GI50 [10]	GI50 [11]	GI50 [12]	GI50 [13]	GI50 [14]
Cc1ccc(NC(=O)CSc2nnc(Cc3ccccc3)o2)c(C)c1	> 100 µM (inactive)	> 100 µM (inactive)	> 100 µM (inactive)	> 100 µM (inactive)	> 100 µM (inactive)	> 100 µM (inactive)	> 100 µM (inactive)	> 100 µM (inactive)	> 100 µM (inactive)	> 100 µM (inactive)	–	–	–	–
C/C(=N/NC(N)=S)c1ccc2ccccc2c1	17.6 µM (inactive)	–	–	9.16 µM (inactive)	25.9 µM (inactive)	28.3 µM (inactive)	41.9 µM (inactive)	55.6 µM (inactive)	11.8 µM (inactive)	36.1 µM (inactive)	17.1 µM (inactive)	24 µM (inactive)	16 µM (inactive)	> 100 µM (inactive)
CCc1cccc(C(C)C)c1N1C(=O)C(=O)C(c2nc3ccccc3s2)C(=O)C1=O	17.7 µM (inactive)	> 50 µM (inactive)	> 50 µM (inactive)	> 44.7 µM (inactive)	> 50 µM (inactive)	> 50 µM (inactive)	> 39.3 µM (inactive)	> 50 µM (inactive)	> 44.4 µM (inactive)	> 50 µM (inactive)	> 50 µM (inactive)	> 50 µM (inactive)	> 50 µM (inactive)	> 50 µM (inactive)
O=C(Nc1ccc(Sc2ccc(/N=N/c3c(O)c(S(=O)(=O)O)cc4cc(S(=O)(=O)O)ccc34)cc2)cc1)c1ccc(/N=N/c2c(O)c(S(=O)(=O)O)cc3cc(S(=O)(=O)O)ccc23)cc1	12.2 µM (inactive)	35.6 µM (inactive)	43.6 µM (inactive)	33 µM (inactive)	> 100 µM (inactive)	24.1 µM (inactive)	13.8 µM (inactive)	29.9 µM (inactive)	24.9 µM (inactive)	32.1 µM (inactive)	45.8 µM (inactive)	47.2 µM (inactive)	> 100 µM (inactive)	30.5 µM (inactive)
CC(C)(CN1CCOCC1)C(=O)/C=C/c1ccc(/C=C/C(=O)C(C)(C)CN2CCOCC2)cc1	0.278 µM (active)	1.75 µM (inactive)	2 µM (inactive)	1.54 µM (inactive)	1.94 µM (inactive)	0.942 µM (active)	1.99 µM (inactive)	1.52 µM (inactive)	1.69 µM (inactive)	1.77 µM (inactive)	2.07 µM (inactive)	1.8 µM (inactive)	1.83 µM (inactive)	2.33 µM (inactive)
Cc1cn2cc(-c3ccncc3)nc2s1	> 100 µM (inactive)	> 100 µM (inactive)	> 100 µM (inactive)	> 100 µM (inactive)	> 100 µM (inactive)	> 82 µM (inactive)	> 100 µM (inactive)	> 100 µM (inactive)	> 100 µM (inactive)	> 100 µM (inactive)	> 100 µM (inactive)	> 100 µM (inactive)	> 100 µM (inactive)	> 100 µM (inactive)
c1ccc(P(=Nc2ccccc2N=P(c2ccccc2)(c2ccccc2)c2ccccc2)(c2ccccc2)c2ccccc2)cc1	0.274 µM (active)	2.31 µM (inactive)	0.555 µM (active)	0.834 µM (active)	0.371 µM (active)	1.25 µM (inactive)	0.386 µM (active)	0.869 µM (active)	1.44 µM (inactive)	> 100 µM (inactive)	1.16 µM (inactive)	1.53 µM (inactive)	0.942 µM (active)	0.178 µM (active)
O=C(/C=C/c1ccc(O)cc1)c1cc(Cl)ccc1O	17.2 µM (inactive)	21.8 µM (inactive)	77.6 µM (inactive)	> 100 µM (inactive)	46.5 µM (inactive)	38.8 µM (inactive)	71.8 µM (inactive)	70.8 µM (inactive)	55.3 µM (inactive)	44.2 µM (inactive)	18.8 µM (inactive)	–	62.8 µM (inactive)	85.3 µM (inactive)
O=C(N/C(=C\c1ccc(/C=C(\NC(=O)c2ccccc2)c2nc3cc([N+](=O)[O-])ccc3[nH]2)cc1)c1nc2cc([N+](=O)[O-])ccc2[nH]1)c1ccccc1	11.4 µM (inactive)	46.7 µM (inactive)	42.4 µM (inactive)	–	68.5 µM (inactive)	39.5 µM (inactive)	47.8 µM (inactive)	23.2 µM (inactive)	30.8 µM (inactive)	14.8 µM (inactive)	80.4 µM (inactive)	> 100 µM (inactive)	27.1 µM (inactive)	35.2 µM (inactive)
CSc1nsc(-c2ccccc2)[s+]1.[O-][Cl+3]([O-])([O-])[O-]	> 100 µM (inactive)	> 100 µM (inactive)	> 100 µM (inactive)	> 100 µM (inactive)	> 100 µM (inactive)	> 100 µM (inactive)	> 100 µM (inactive)	> 100 µM (inactive)	> 100 µM (inactive)	> 100 µM (inactive)	> 100 µM (inactive)	–	> 100 µM (inactive)	–
Cc1ccc(NCCO)cc1	> 100 µM (inactive)	> 100 µM (inactive)	> 100 µM (inactive)	> 100 µM (inactive)	> 100 µM (inactive)	> 100 µM (inactive)	> 100 µM (inactive)	> 100 µM (inactive)	> 100 µM (inactive)	> 100 µM (inactive)	> 100 µM (inactive)	> 100 µM (inactive)	–	97.1 µM (inactive)
Oc1ccc(C2Oc3cc(O)cc4c3C2c2cc(O)cc3c2C(c2cc(O)cc5c2C4C(c2ccc(O)cc2)O5)C(c2ccc(O)cc2)O3)cc1 (centres undefined)	6.55 µM (inactive)	8.24 µM (inactive)	14.2 µM (inactive)	7.4 µM (inactive)	3.19 µM (inactive)	4.4 µM (inactive)	10.5 µM (inactive)	> 25 µM (inactive)	> 25 µM (inactive)	5.28 µM (inactive)	5.58 µM (inactive)	> 25 µM (inactive)	8.15 µM (inactive)	3.94 µM (inactive)
COC(=O)C(Cc1cc(OC)c(OC)c(OC)c1)C(=O)OC	> 320 µM (inactive)	–	> 320 µM (inactive)	> 320 µM (inactive)	–	–	> 320 µM (inactive)	> 320 µM (inactive)	–	> 320 µM (inactive)	–	> 320 µM (inactive)	> 320 µM (inactive)	> 320 µM (inactive)
Cc1cc(Cl)ccc1NC(=O)CC1SC(NC(=O)c2ccccc2Cl)=NC1=O (centres undefined)	15.1 µM (inactive)	21.6 µM (inactive)	19 µM (inactive)	–	19.2 µM (inactive)	20.9 µM (inactive)	16.3 µM (inactive)	16.9 µM (inactive)	17.1 µM (inactive)	22 µM (inactive)	19.2 µM (inactive)	27.9 µM (inactive)	59.4 µM (inactive)	18.8 µM (inactive)
c1ccc2c(c1)nnn1c3cnccc3nc21	13.9 µM (inactive)	38.9 µM (inactive)	32.4 µM (inactive)	23.9 µM (inactive)	25.4 µM (inactive)	29 µM (inactive)	85.1 µM (inactive)	30.2 µM (inactive)	91 µM (inactive)	> 100 µM (inactive)	35.4 µM (inactive)	63.8 µM (inactive)	46.5 µM (inactive)	24.6 µM (inactive)
COc1cccc(NC(=O)/C(CC(=O)CC(c2ccccc2)c2c(O)c3ccccc3oc2=O)=N\NC(C)(C)C)c1OC (centres undefined)	–	72.1 µM (inactive)	> 100 µM (inactive)	34 µM (inactive)	27.7 µM (inactive)	> 100 µM (inactive)	> 100 µM (inactive)	34.4 µM (inactive)	44.5 µM (inactive)	> 100 µM (inactive)	34.5 µM (inactive)	> 100 µM (inactive)	40.9 µM (inactive)	17.6 µM (inactive)
Cc1cc(N(CCC#N)CCC#N)ccc1/C=C1N=C(/C=C\c2ccccc2)OC\1=O	> 100 µM (inactive)	> 100 µM (inactive)	> 100 µM (inactive)	> 100 µM (inactive)	> 100 µM (inactive)	> 100 µM (inactive)	> 100 µM (inactive)	> 100 µM (inactive)	> 100 µM (inactive)	> 100 µM (inactive)	> 100 µM (inactive)	> 100 µM (inactive)	> 100 µM (inactive)	> 100 µM (inactive)
CCOC(=O)/C=C1\Nc2ccccc2C(c2ccccc2)=NC1OC(C)=O (centres undefined)	> 100 µM (inactive)	44 µM (inactive)	> 100 µM (inactive)	> 100 µM (inactive)	31.9 µM (inactive)	> 100 µM (inactive)	> 100 µM (inactive)	> 100 µM (inactive)	> 100 µM (inactive)	> 100 µM (inactive)	> 100 µM (inactive)	–	> 100 µM (inactive)	32.1 µM (inactive)
COC(=O)c1cc(Cl)ccc1NC(=O)c1ccc([N+](=O)[O-])cc1	–	17.2 µM (inactive)	14.6 µM (inactive)	19.8 µM (inactive)	6.73 µM (inactive)	3.33 µM (inactive)	39.2 µM (inactive)	5.97 µM (inactive)	29 µM (inactive)	28.2 µM (inactive)	20.4 µM (inactive)	> 100 µM (inactive)	29.2 µM (inactive)	–
O=C1CCC2(c3ccccc3)Nc3ccc(Cl)cc3N12 (centres undefined)	> 100 µM (inactive)	> 100 µM (inactive)	> 100 µM (inactive)	> 100 µM (inactive)	37.7 µM (inactive)	> 100 µM (inactive)	> 100 µM (inactive)	> 100 µM (inactive)	> 100 µM (inactive)	> 100 µM (inactive)	> 100 µM (inactive)	> 100 µM (inactive)	> 100 µM (inactive)	84.5 µM (inactive)
